Data taken from patent US20180050993A1, “NOVEL FLUORINATED DERIVATIVES AS EGFR INHIBITORS USEFUL FOR TREATING CANCERS” (Trillium Therapeutics Inc., priority 2015, published 2018).
Counter-ions that a name gives are not always drawn. Like-named read-outs stand apart in the source and are kept apart here. Blank lines part the entries; values can stand above or below the compound they belong to.

Key:
EGFR (L858R) = molecular target: T1, EGFR (L858R) (Homo sapiens, UniProt P00533, L858R); assay: Kinase HotSpot profiling (Reaction Biology), 33P-ATP filter-binding; type: biochemical; settings: mutant EGFR L858R
T1 construct: purchased Reaction Biology
Description: (§1) Base Reaction buffer; 20 mM Hepes (pH 7.5), 10 mM MgCl2, 1 mM EGTA, 0.02% Brij35, 0.02 mg/ml BSA, 0.1 mM Na3VO4, 2 mM DTT, 1% DMSO
(§2) *Required cofactors are added individually to each kinase reaction
(§3) 1. The indicated substrate was prepared in fresh Base Reaction Buffer.
(§4) 2. Any required cofactors were added to the substrate solution above.
(§5) 3. Indicated kinase was added into the substrate solution and gently mixed.
(§6) 4. Compounds in DMSO were added into the kinase reaction mixture by Acoustic technology (Echo550; nanoliter range) and incubated for 20 minutes at room temperature.
(§7) 5. 33P-ATP (specific activity 10 μCi/μl) was added into the reaction mixture to initiate the reaction.
(§8) 6. The kinase reaction was incubated for 2 hours at room temperature
(§9) 7. Reactions were spotted onto P81 ion exchange paper.
(§10) 8. Kinase activity was detected by filter-binding method.
(§11) Representative compounds of Formula I were evaluated against WT EGFR and mutant EGFR (L858R and L858R, T790M) kinases. IC50 concentrations are illustrated in Table 9.

EGFR = molecular target: T2, EGFR (Homo sapiens, UniProt P00533); assay: as above; type: biochemical; settings: WT EGFR
T2 construct: purchased Reaction Biology
Description: as §1, §2, §3, §4, §5, §6, §7, §8, §9, §10, §11

EGFR (L858R, T790M) = molecular target: T3, EGFR (L858R, T790M) (Homo sapiens, UniProt P00533, L858R/T790M); assay: as above; type: biochemical; settings: mutant EGFR L858R
T3 construct: purchased Reaction Biology
Description: as §1, §2, §3, §4, §5, §6, §7, §8, §9, §10, §11

[1] = Mouse liver microsomal stability; type: in vitro ADME; settings: stability in pooled mouse (CD-1, male) liver microsomes 0.5 mg/ml, compound 1 μM, parent compound by LC/MS, in % (unit assumed)
Description: (§12) Working stocks were initially diluted to a concentration of 40.0 μM in 0.1 M potassium phosphate buffer before addition to the reaction vials. Pooled mouse (CD-1, male) or human (50 donors) liver microsomes were utilized at a final concentration of 0.5 mg/ml. Duplicate wells were used for each time point (0 and 30 minutes). Reactions were carried out at 37° C. in a shaker, and the final concentration of DMSO was kept constant at 0.01%. The final volume for each reaction was 100 μL, which includes the addition of an NADPH-Regeneration solution (NRS) mix. This NRS mix is comprised of glucose 6-phosphate dehydrogenase (0.4 U/mL), NADP+ (1.3 mM), MgCl2 (3.3 mM), and glucose 6-phosphate (3.3 mM) in assay mixtures. Upon completion of the 30 minute time point, reactions were terminated by the addition of 1.5-volumes (150 μL) of ice-cold, acetonitrile with 0.5% formic acid and internal standard. Samples were then centrifuged at 4,000 rpm for 10 minutes to remove debris and precipitated protein. Approximately 150 μL of supernatant was subsequently transferred to a new 96 well microplate for LC/MS analysis.
(§13) Narrow-window mass extraction LC/MS analysis was performed for all samples using a Waters Xevo quadrupole time-of-flight (QTof) mass spectrometer and an ACQUITY UPLC system, to determine relative peak areas of parent compound.
(§14) Human and mouse liver microsomes contain a wide variety of drug metabolizing enzymes and are commonly used to support in vitro ADME (absorption, distribution, metabolism and excretion) studies. These microsomes are used to examine the potential first-pass metabolism by-products of orally administered drugs. Representative compounds of the application were evaluated for their stability in human and mouse liver microsomes.

[2] = Human liver microsomal stability; type: in vitro ADME; settings: stability in pooled human (50 donors) liver microsomes 0.5 mg/ml, compound 1 μM, parent compound by LC/MS
Description: as §12, §13, §14

[3] = Brain concentrations after PO administration in rat, peak at 8 hours (Table 5); type: in vivo; settings: Table 5 (8 hours); for Kp at 8 h: brain/plasma, po, 50 mg/kg
HCC827 = assay: Comparison with 1st generation inhibitors against a lung cancer cell line (HCC827); type: cell-based; settings: Homo sapiens, read-out: Biochemical IC50
EPHA6 [4] = molecular target: T4, EPHA6 (Homo sapiens, UniProt Q9UF33); assay: Kinome screen at 300 nM (qPCR competition binding); set-up: purchased DiscoveRx; host or cells: E. coli BL21-derived (T7 phage) or HEK-293; settings: result in words
T4 sequence (Q9UF33 23-1036): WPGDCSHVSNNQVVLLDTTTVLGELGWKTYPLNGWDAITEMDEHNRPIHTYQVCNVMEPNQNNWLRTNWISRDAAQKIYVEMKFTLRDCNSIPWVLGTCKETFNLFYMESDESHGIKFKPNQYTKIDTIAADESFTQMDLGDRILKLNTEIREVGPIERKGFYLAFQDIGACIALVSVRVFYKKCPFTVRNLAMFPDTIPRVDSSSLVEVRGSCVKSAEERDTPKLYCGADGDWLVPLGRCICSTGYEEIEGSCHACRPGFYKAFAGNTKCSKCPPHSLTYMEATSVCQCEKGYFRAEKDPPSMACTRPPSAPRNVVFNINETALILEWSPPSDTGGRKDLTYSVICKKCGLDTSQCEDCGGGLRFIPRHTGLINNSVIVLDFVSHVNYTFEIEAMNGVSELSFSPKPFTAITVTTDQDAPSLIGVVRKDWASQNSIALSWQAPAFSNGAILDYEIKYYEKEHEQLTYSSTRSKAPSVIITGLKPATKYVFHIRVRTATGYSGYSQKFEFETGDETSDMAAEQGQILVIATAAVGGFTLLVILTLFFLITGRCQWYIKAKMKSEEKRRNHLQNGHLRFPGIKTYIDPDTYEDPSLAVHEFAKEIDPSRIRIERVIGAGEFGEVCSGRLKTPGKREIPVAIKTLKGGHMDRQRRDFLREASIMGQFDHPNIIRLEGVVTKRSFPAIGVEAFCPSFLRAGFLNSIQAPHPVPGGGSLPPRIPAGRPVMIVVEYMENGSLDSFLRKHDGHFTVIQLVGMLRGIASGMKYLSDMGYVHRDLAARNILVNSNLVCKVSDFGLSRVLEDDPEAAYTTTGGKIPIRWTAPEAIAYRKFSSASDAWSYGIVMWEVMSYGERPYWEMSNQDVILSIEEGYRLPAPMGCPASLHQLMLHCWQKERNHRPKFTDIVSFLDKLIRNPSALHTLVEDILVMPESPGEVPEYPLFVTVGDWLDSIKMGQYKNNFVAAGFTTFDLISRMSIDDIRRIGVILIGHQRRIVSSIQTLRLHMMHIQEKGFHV

[5] = Brain and plasma concentrations after oral gavage in rat, sampling to 4 hours (Table 4); type: in vivo; settings: Table 4 (4 hours); for AUClast / Cmax / Tmax: brain tissue, PO 50 mg/kg; for Cmax / Tmax / Kp at 4 h: male, Sprague-Dawley (SD); for Kp at 4 h: brain/plasma, po, 50 mg/kg
P-gp = molecular target: T5, P-gp (Homo sapiens, UniProt P08183); assay: Evaluation of P-gp efflux in Caco-2 cell monolayers; type: in vitro ADME;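 further: Caco-2 monolayers dosed apically or basolaterally with test compound at 5 µM in HBSS with HEPES and glucose, 37 °C, donor and receiver sampled after 120 min, LC/MS peak areas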
T5 construct: host or cells: Caco-2 (C2BBe1)

EPHA6 [6] = molecular target: T4, EPHA6; assay: Binding constants (Kd) for EPHA6, kinase competition binding with qPCR readout
EGFR(L747-T751del, Sins) = assay: Kinome screen at 300 nM (qPCR competition binding)
[7] = Sprague-Dawley, brain, PO 50 mg/kg

T1 sequence (P00533 25-1210 L858R): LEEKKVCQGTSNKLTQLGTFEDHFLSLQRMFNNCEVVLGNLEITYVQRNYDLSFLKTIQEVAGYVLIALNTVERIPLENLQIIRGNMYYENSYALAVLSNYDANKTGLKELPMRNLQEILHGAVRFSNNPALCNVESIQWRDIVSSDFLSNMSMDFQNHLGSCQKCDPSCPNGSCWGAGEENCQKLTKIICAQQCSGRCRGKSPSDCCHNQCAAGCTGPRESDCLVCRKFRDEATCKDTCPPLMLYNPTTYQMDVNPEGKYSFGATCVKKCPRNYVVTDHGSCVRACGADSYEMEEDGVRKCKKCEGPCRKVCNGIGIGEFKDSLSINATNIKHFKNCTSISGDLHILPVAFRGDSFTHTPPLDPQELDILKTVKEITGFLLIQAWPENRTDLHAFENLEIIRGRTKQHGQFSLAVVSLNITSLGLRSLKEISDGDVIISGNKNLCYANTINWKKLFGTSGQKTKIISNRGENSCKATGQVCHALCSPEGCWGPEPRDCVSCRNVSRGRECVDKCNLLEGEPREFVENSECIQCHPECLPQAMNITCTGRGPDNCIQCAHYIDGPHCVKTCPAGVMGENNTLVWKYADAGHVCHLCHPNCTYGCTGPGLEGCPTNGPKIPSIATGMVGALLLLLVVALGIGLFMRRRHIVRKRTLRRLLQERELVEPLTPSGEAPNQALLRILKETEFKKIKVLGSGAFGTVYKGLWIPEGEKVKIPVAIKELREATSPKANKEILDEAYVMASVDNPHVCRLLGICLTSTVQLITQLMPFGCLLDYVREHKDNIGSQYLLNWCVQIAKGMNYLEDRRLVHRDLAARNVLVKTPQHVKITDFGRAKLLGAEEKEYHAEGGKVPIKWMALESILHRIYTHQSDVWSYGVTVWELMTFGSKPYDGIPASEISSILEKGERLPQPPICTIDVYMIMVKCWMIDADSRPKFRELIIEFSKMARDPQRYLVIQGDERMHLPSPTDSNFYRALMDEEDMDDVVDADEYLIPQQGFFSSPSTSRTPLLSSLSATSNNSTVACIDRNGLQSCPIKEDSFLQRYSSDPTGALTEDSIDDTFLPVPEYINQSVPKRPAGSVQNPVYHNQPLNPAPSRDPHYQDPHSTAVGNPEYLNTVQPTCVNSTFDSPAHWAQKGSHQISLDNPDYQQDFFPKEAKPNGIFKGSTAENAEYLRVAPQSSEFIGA
T5 sequence (P08183 whole entry): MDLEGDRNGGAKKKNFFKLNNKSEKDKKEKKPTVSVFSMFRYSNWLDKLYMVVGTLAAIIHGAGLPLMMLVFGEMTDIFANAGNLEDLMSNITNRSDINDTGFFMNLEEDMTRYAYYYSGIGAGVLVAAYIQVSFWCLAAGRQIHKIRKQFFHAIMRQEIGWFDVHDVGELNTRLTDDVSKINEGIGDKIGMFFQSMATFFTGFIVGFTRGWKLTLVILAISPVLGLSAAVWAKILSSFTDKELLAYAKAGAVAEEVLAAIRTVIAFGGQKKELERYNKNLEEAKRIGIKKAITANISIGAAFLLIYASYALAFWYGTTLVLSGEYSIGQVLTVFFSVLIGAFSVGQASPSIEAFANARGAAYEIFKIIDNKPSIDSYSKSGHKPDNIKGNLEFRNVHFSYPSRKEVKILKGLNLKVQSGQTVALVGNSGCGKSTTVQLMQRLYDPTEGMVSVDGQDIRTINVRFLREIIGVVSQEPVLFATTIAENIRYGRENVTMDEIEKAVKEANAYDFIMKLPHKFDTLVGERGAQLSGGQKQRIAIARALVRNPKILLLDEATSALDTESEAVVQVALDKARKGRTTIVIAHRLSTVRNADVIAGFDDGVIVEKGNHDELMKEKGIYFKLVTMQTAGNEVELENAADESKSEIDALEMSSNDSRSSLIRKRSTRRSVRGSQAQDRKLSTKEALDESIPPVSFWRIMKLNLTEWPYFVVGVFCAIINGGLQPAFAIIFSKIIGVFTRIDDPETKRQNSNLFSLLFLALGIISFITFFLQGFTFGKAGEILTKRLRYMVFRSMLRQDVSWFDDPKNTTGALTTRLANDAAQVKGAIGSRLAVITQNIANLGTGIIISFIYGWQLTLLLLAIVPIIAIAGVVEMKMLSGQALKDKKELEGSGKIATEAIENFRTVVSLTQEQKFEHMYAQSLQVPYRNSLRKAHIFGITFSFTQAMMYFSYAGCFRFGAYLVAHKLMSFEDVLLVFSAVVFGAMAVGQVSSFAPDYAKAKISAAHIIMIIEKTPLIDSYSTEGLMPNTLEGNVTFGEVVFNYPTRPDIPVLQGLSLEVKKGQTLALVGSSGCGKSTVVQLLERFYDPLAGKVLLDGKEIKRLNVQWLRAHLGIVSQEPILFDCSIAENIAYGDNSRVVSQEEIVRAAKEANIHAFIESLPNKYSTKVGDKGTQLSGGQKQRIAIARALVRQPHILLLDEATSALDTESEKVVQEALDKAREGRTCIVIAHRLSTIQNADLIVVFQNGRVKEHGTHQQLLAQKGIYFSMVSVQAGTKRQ
T2 sequence (P00533 25-1210): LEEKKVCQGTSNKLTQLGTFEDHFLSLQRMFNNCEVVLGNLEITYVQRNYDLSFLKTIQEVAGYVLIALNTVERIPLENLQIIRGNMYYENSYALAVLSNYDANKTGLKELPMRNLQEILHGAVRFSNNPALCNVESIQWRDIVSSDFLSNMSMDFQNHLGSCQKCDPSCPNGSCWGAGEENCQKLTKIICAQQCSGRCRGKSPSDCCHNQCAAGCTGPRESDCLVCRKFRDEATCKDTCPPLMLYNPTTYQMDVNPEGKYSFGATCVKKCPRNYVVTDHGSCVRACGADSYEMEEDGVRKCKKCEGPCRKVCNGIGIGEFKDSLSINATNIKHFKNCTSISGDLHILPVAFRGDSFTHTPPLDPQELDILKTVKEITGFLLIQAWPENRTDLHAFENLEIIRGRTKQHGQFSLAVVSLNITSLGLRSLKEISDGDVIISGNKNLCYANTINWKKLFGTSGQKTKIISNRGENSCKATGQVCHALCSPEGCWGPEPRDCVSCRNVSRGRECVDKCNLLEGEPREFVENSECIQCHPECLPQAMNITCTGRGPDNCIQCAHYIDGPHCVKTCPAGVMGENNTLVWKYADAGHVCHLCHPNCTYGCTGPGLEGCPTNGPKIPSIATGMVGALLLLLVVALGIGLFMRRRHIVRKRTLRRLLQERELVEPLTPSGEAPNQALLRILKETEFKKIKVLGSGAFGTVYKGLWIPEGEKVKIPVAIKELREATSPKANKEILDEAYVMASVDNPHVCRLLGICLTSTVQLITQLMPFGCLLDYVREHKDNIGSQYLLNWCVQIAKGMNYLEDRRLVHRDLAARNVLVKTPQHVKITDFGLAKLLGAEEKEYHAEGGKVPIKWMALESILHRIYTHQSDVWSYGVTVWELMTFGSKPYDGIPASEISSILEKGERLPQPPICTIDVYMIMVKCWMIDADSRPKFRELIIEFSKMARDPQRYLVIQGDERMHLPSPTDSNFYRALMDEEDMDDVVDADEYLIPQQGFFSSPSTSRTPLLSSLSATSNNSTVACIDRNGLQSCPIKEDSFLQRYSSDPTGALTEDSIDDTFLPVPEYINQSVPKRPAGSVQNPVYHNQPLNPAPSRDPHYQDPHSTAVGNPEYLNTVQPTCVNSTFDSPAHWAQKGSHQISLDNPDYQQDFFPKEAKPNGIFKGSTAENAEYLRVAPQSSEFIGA
T3 sequence (P00533 25-1210 T790M/L858R): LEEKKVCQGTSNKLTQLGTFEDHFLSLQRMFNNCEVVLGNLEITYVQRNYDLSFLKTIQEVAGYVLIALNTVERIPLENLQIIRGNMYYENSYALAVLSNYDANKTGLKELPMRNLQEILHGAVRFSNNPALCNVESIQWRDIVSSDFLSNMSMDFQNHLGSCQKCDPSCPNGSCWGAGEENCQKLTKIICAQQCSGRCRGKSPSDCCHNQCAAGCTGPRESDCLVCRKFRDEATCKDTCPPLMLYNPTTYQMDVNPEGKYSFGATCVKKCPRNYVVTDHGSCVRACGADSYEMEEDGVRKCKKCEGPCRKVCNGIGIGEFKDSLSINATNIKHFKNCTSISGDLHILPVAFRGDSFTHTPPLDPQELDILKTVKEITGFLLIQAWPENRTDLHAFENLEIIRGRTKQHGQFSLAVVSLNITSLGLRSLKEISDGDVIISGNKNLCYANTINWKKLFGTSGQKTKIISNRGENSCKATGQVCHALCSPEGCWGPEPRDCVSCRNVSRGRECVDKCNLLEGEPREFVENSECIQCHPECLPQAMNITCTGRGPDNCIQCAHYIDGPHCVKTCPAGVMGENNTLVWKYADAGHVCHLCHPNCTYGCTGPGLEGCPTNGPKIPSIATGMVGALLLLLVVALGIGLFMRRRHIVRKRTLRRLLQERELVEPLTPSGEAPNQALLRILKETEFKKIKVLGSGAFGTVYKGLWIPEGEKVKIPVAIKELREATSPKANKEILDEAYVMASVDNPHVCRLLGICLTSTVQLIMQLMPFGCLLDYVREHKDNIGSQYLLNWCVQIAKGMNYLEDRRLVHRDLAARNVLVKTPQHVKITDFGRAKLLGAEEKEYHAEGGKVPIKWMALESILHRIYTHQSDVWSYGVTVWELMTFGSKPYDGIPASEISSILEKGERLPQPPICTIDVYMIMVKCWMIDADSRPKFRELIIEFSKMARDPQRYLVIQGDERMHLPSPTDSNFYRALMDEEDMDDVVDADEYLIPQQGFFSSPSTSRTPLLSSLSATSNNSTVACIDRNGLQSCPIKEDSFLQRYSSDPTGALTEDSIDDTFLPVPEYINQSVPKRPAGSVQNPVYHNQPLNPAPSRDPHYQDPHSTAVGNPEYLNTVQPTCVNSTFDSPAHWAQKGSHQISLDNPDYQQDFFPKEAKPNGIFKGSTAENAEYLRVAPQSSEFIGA

- IC50 (EGFR (L858R)): 0.977 nM
- IC50 (EGFR): 0.587 nM
SMILES: C#Cc1cccc(Nc2ncnc3cc(OCCOC(F)F)c(OCCOC(F)F)cc23)c1F [2(Nn)]

- IC50 (EGFR (L858R)): 0.052 nM
- IC50 (EGFR): 0.0205 nM
SMILES: COc1cc2ncnc(Nc3ccc(F)c(Cl)c3F)c2cc1OC(=O)N1CCC(OC(F)F)CC1 [2(Oo), [4-(3-chloro-2,4-difluoro-anilino)-7-methoxy-quinazolin-6-yl] 4-(difluoromethoxy)piperidine-1-carboxylate]

- IC50 (EGFR (L858R)): 0.345 nM
- IC50 (EGFR): 0.143 nM
SMILES: COc1cc2ncnc(Nc3ccc(F)c(Cl)c3F)c2cc1OC(=O)N1CCC[C@H](OC(F)F)C1 [2(Pp), [4-(3-chloro-2,4-difluoro-anilino)-7-methoxy-quinazolin-6-yl] (3S)-3-(difluoromethoxy)piperidine-1-carboxylate]

- IC50 (EGFR (L858R)): 0.0164 nM
- IC50 (EGFR): 0.0138 nM
- IC50 (EGFR (L858R, T790M)): 6820 nM
SMILES: COc1cc2ncnc(Nc3ccc(F)c(Cl)c3F)c2cc1OC(=O)N1CC[C@@H](COC(F)F)C1 [2(Qq), [4-(3-chloro-2,4-difluoro-anilino)-7-methoxy-quinazolin-6-yl] (3R)-3-(difluoromethoxymethyl)pyrrolidine-1-carboxylate]

- MLM (30 min) [1]: 67.8
- HLM (30 min) [2]: 89.6%
SMILES: Fc1cc(Cl)ccc1Nc1ncnc2cc(OCCOC(F)F)c(OCCOC(F)F)cc12 [2(e), N-(4-chloro-2-fluoro-phenyl)-6,7-bis[2-(difluoromethoxy)ethoxy]quinazolin-4-amine]

- MLM (30 min) [1]: 1.5
- HLM (30 min) [2]: 19.7%
SMILES: COc1cc2ncnc(Nc3cccc(Cl)c3F)c2cc1OCCOC(F)F [2(i), N-(3-chloro-2-fluoro-phenyl)-6-[2-(difluoromethoxy)ethoxy]-7-methoxy-quinazolin-4-amine]

- MLM (30 min) [1]: 0.7
- HLM (30 min) [2]: 60.4%
SMILES: COc1cc2ncnc(Nc3ccc(F)c(Cl)c3F)c2cc1OCCOC(F)F [2(k), N-(3-chloro-2,4-difluoro-phenyl)-6-[2-(difluoromethoxy)ethoxy]-7-methoxy-quinazolin-4-amine]

- IC50 (EGFR (L858R)): 0.0142 nM
- IC50 (EGFR): 0.0434 nM
- IC50 (EGFR (L858R, T790M)): 4010 nM
SMILES: COc1cc2ncnc(Nc3ccc(F)c(Cl)c3F)c2cc1OCCCN1CCC(OC(F)F)CC1 [2(q), N-(3-chloro-2,4-difluoro-phenyl)-6-[3-[4-(difluoromethoxy)-1-piperidyl]propoxy]-7-methoxy-quinazolin-4-amine]

- IC50 (EGFR (L858R)): 0.0891 nM
- IC50 (EGFR): 0.0298 nM
SMILES: COc1cc2ncnc(Nc3ccc(F)c(Cl)c3F)c2cc1NC(=O)N1CCC(COC(F)F)CC1 [3(A), N-[4-(3-chloro-2,4-difluoro-anilino)-7-methoxy-quinazolin-6-yl]-4-(difluoromethoxymethyl)piperidine-1-carboxamide]

- IC50 (EGFR (L858R)): 0.0138 nM
- IC50 (EGFR): 0.0125 nM
SMILES: COc1cc2ncnc(Nc3ccc(F)c(Cl)c3F)c2cc1NC(=O)N1CC(OC(F)F)C1 [3(B), N-[4-(3-chloro-2,4-difluoro-anilino)-7-methoxy-quinazolin-6-yl]-3-(difluoromethoxy)azetidine-1-carboxamide]

- Cmax [3, 7]: 5610 ng/g
- Tmax [3, 7]: 8 h
- Kp at 8 h ([3]; Sprague-Dawley, read-out: AUCLast Ratio (Brain/Plasma)): 1.5
- Kp at 8 h ([3]; Sprague-Dawley, read-out: Cmax Ratio (Brain/Plasma)): 1.72
- AUCInf ([3]; brain, PO 50 mg/kg): 102348 ng·h/g
- AUClast ([3]; brain, PO 50 mg/kg): 101853 ng·h/g
- MLM (30 min) ([1]; listed as 2(a)•HCl): 91.7
- IC50 (HCC827): 21 nM
- selectivity over erlotinib for the ephrin receptor kinase, EPHA6 (EPHA6 [4]): did show selectivity over erlotinib
- HLM (30 min) ([2]; listed as 2(a)•HCl): 97.4%
- AUClast [5]: 22593 ng·h/g
- Cmax [5]: 6980 ng/g
- Tmax [5]: 4 h
- Kp at 4 h ([5]; read-out: AUCLast Ratio (Brain/Plasma)): 1.69
- Kp at 4 h ([5]; read-out: Cmax Ratio (Brain/Plasma)): 1.81
- recovery at 120 min, 5 μM (P-gp; Caco-2, pH 7.4, with none (verapamil 0 μM), Caco-2, Verapamil 0 μM, read-out: Recovery (%) AP-BL): 43.4%
- recovery at 120 min, 5 μM (P-gp; Caco-2, pH 7.4, with none (verapamil 0 μM), Caco-2, Verapamil 0 μM, read-out: Recovery (%) BL-AP): 57.1%
- recovery at 120 min, 5 μM (P-gp; Caco-2, pH 7.4, with verapamil 100 μM, Caco-2, Verapamil 100 μM, read-out: Recovery (%) AP-BL): 55.5%
- recovery at 120 min, 5 μM (P-gp; Caco-2, pH 7.4, with verapamil 100 μM, Caco-2, Verapamil 100 μM, read-out: Recovery (%) BL-AP): 83.2%
- Papp A→B at 120 min, 5 μM (P-gp; pH 7.4, Caco-2, Verapamil 0 μM): 0.58 ×10⁻⁶ cm/s
- Papp B→A at 120 min, 5 μM (P-gp; pH 7.4, Caco-2, Verapamil 0 μM): 0.35 ×10⁻⁶ cm/s
- efflux ratio at 120 min, 5 µM (P-gp; pH 7.4, Caco-2, Verapamil 0 μM): 0.59
- Kd (EPHA6 [6]): 9.1 nM
SMILES: Fc1c(Nc2ncnc3cc(OCCOC(F)F)c(OCCOC(F)F)cc23)ccc(Cl)c1Cl [Compound 2A•HCl, N-(3,4-dichloro-2-fluoro-phenyl)-6,7-bis[2 (difluoromethoxy)ethoxy]quinazolin-4-amine]

- % Control @ 300 nM (EGFR(L747-T751del, Sins)): 0.12%
- MLM (30 min) [1]: 56.3
- HLM (30 min) [2]: 75.5%
- AUClast [5]: 4319 ng·h/g
- Cmax [5]: 1710 ng/g
- Tmax [5]: 4 h
SMILES: C#Cc1cccc(Nc2ncnc3cc(OCCOC)c(OCCOC)cc23)c1 [Erlotinib, N-(3-ethynylphenyl)-6,7-bis(2-methoxyethoxy)quinazolin-4-amine, reference compound]
